Measured values as given in patent US9714236B2, “Compounds and methods for inhibiting JAK” (AstraZeneca AB, priority 2015, dated 2017).

How the values were obtained:
Format in all cases: biochemical
[1] = target: recombinant JAK1 (amino acids 866-1154) (Homo sapiens (Human), UniProt P23458); experiment: Enzyme inhibition studies, JAK1 (peptide phosphorylation, Caliper LC3000); conditions: ATP concentration not given (assayed at ATP Km 55 μM and at 5 mM)
Experimental: (§1) Enzyme inhibition studies were performed using recombinant JAK1 (amino acids 866-1154, Life Technologies, #PV4774, Carlsbad, Calif.), JAK2 (amino acids 831-1132), or JAK3 (amino acids 781-1124) under buffer conditions of 50 mM HEPES pH 7.3, 1 mM DTT, 0.01% Tween® 20, 50 μg/mL BSA, and 10 mM MgCl2. JAK enzyme was expressed as an N-terminal GST fusion in insect cells and purified by glutathione-affinity and size-exclusion chromatographies. […] Phosphorylated and unphosphorylated peptides were separated and quantified by a Caliper LC3000 system (Caliper Life Sciences, MA) for calculating percent inhibition.

[2] = target: recombinant JAK2 (amino acids 831-1132) (Homo sapiens (Human), UniProt O60674); experiment: Enzyme inhibition studies, JAK2 (peptide phosphorylation, Caliper LC3000); conditions: ATP concentration of the tabulated values not stated (assayed at ATP Km 15 μM and at 5 mM)
recombinant JAK2 (amino acids 831-1132), sequence (O60674 831-1132): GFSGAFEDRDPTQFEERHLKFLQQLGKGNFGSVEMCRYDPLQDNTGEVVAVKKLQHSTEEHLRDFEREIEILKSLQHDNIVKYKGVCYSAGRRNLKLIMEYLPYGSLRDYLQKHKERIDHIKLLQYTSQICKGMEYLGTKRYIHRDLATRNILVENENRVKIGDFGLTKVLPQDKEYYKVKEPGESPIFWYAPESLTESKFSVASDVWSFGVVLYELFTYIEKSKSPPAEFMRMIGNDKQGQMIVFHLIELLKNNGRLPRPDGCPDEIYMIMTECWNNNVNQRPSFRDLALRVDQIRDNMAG
Experimental: as §1

[3] = target: recombinant JAK3 (amino acids 781-1124) (Homo sapiens (Human), UniProt P52333); experiment: Enzyme inhibition studies, JAK3 (peptide phosphorylation, Caliper LC3000); conditions: ATP concentration of the tabulated values not stated (assayed at ATP Km 3 μM and at 5 mM)
recombinant JAK3 (amino acids 781-1124), sequence (P52333 781-1124): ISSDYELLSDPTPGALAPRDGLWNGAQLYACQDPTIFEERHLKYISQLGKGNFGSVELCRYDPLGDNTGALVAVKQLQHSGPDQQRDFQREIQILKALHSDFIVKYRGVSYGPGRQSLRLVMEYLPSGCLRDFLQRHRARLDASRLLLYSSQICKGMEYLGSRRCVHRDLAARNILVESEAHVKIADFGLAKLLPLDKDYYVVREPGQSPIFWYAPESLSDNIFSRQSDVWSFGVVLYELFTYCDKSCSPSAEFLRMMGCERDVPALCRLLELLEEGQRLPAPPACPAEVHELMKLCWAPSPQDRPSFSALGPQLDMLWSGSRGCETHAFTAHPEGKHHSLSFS
Experimental: as §1

recombinant JAK1 (amino acids 866-1154), sequence (P23458 866-1154): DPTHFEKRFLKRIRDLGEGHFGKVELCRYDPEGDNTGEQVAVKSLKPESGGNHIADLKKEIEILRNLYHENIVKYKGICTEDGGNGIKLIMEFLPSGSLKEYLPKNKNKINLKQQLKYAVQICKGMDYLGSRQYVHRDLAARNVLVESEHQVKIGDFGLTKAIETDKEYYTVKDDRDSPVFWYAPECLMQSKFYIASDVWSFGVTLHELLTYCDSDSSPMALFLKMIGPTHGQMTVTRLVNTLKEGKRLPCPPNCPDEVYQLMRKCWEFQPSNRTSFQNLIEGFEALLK

| Compound | IC50 [1] | IC50 [2] | IC50 [3] |
| --- | --- | --- | --- |
| COc1nn(C)cc1Nc1nccc(-c2c[nH]c3c(NC(=O)[C@@H](C)N4CCN(C)C[C@@H]4C)cccc23)n1 [Example 1, (2R)-2-[(2S)-2,4-dimethylpiperazin-1-yl]-N-(3-{2-[(3-methoxy-1-methyl-1H-pyrazol-4-yl)amino]pyrimidin-4-yl}-1H-indol-7-yl)propanamide] | 0.847 µM |  |  |
| COc1nn(C)cc1Nc1ncc(F)c(-c2c[nH]c3c(NC(=O)[C@@H](C)N4CCN(C)[C@H](C)C4)cccc23)n1 [Example 2, (2R)-2-[(3R)-3,4-dimethylpiperazin-1-yl]-N-(3-{5-fluoro-2-[(3-methoxy-1-methyl-1H-pyrazol-4-yl)amino]pyrimidin-4-yl}-1H-indol-7-yl)propanamide] | 0.085 µM | 12.8 µM | > 30 µM |
| COCCN1CCN([C@H](C)C(=O)Nc2cccc3c(-c4nc(Nc5cn(C)nc5OC)ncc4F)c[nH]c23)CC1 [Example 3, (2R)-N-(3-{5-fluoro-2-[(3-methoxy-1-methyl-1H-pyrazol-4-yl)amino]pyrimidin-4-yl}-1H-indol-7-yl)-2-[4-(2-methoxyethyl)piperazin-1-yl]propanamide] | 0.191 µM | 26.8 µM | > 30 µM |
| CCN1CCN([C@H](C)C(=O)Nc2cccc3c(-c4nc(Nc5cn(C)nc5OC)ncc4F)c[nH]c23)CC1 [Example 4, (2R)-2-(4-ethylpiperazin-1-yl)-N-(3-{5-fluoro-2-[(3-methoxy-1-methyl-1H-pyrazol-4-yl)amino]pyrimidin-4-yl}-1H-indol-7-yl)propanamide] | 0.043 µM | 6.57 µM | > 30 µM |
| COc1nn(C)cc1Nc1ncc(F)c(-c2c[nH]c3c(NC(=O)[C@@H](C)N4CCN(C)[C@@H](C)C4)cccc23)n1 [Example 5, (2R)-2-[(3S)-3,4-dimethylpiperazin-1-yl]-N-(3-{5-fluoro-2-[(3-methoxy-1-methyl-1H-pyrazol-4-yl)amino]pyrimidin-4-yl}-1H-indol-7-yl)propanamide] | 0.024 µM | 10.4 µM | > 30 µM |
| COc1nn(C)cc1Nc1ncc(F)c(-c2c[nH]c3c(NC(=O)[C@@H](C)N4CCN(C)C[C@H]4C)cccc23)n1 [Example 6] | 0.03 µM | 9.62 µM | > 30 µM |
| COc1nn(C)cc1Nc1ncc(F)c(-c2c[nH]c3c(NC(=O)[C@@H](C)N4CCN(C)C[C@@H]4C)cccc23)n1 [Example 7a, (2R)-2-[(2S)-2,4-dimethylpiperazin-1-yl]-N-(3-{5-fluoro-2-[(3-methoxy-1-methyl-1H-pyrazol-4-yl)amino]pyrimidin-4-yl}-1H-indol-7-yl)propanamide] | 0.359 µM | > 30 µM | > 30 µM |
| COc1nn(C)cc1Nc1ncc(F)c(-c2c[nH]c3c(NC(=O)[C@H](C)N4CCN(C)C[C@@H]4C)cccc23)n1 [Example 7b, (2S)-2-[(2S)-2,4-dimethylpiperazin-1-yl]-N-(3-{5-fluoro-2-[(3-methoxy-1-methyl-1H-pyrazol-4-yl)amino]pyrimidin-4-yl}-1H-indol-7-yl)propanamide] | 3.6 µM | > 30 µM | > 30 µM |
| CCOc1nn(C)cc1Nc1ncc(F)c(-c2c[nH]c3c(NC(=O)[C@@H](C)N4CCN(CC)CC4)cccc23)n1 [Example 8, (2R)-N-(3-{2-[(3-ethoxy-1-methyl-1H-pyrazol-4-yl)amino]-5-fluoropyrimidin-4-yl}-1H-indol-7-yl)-2-(4-ethylpiperazin-1-yl)propanamide] | 0.11 µM | 23.6 µM | > 30 µM |
| CCOc1nn(C)cc1Nc1ncc(F)c(-c2c[nH]c3c(NC(=O)[C@@H](C)N4CCN(CCOC)CC4)cccc23)n1 [Example 9, (2R)-N-(3-{2-[(3-ethoxy-1-methyl-1H-pyrazol-4-yl)amino]-5-fluoropyrimidin-4-yl}-1H-indol-7-yl)-2-[4-(2-methoxyethyl)piperazin-1-yl]propanamide] | 0.426 µM | > 30 µM | > 30 µM |
| CCOc1nn(C)cc1Nc1ncc(F)c(-c2c[nH]c3c(NC(=O)[C@@H](C)N4CCN(C)C[C@@H]4C)cccc23)n1 [Example 10a, (2R)-2-[(2S)-2,4-dimethylpiperazin-1-yl]-N-(3-{2-[(3-ethoxy-1-methyl-1H-pyrazol-4-yl)amino]-5-fluoropyrimidin-4-yl}-1H-indol-7-yl)propanamide] | 0.846 µM |  |  |
| CCOc1nn(C)cc1Nc1ncc(F)c(-c2c[nH]c3c(NC(=O)[C@H](C)N4CCN(C)C[C@@H]4C)cccc23)n1 [Example 10b, (2S)-2-[(2S)-2,4-dimethylpiperazin-1-yl]-N-(3-{2-[(3-ethoxy-1-methyl-1H-pyrazol-4-yl)amino]-5-fluoropyrimidin-4-yl}-1H-indol-7-yl)propanamide] | 7.6 µM |  |  |
| CCOc1nn(C)cc1Nc1ncc(F)c(-c2c[nH]c3c(NC(=O)[C@@H](C)N4CCN(C)[C@@H](C)C4)cccc23)n1 [Example 11a, (2R)-2-[(3S)-3,4-dimethylpiperazin-1-yl]-N-(3-{2-[(3-ethoxy-1-methyl-1H-pyrazol-4-yl)amino]-5-fluoropyrimidin-4-yl}-1H-indol-7-yl)propanamide] | 0.04 µM | > 30 µM | > 30 µM |
| CCOc1nn(C)cc1Nc1ncc(F)c(-c2c[nH]c3c(NC(=O)[C@H](C)N4CCN(C)[C@@H](C)C4)cccc23)n1 [Example 11b, (2S)-2-[(3S)-3,4-dimethylpiperazin-1-yl]-N-(3-{2-[(3-ethoxy-1-methyl-1H-pyrazol-4-yl)amino]-5-fluoropyrimidin-4-yl}-1H-indol-7-yl)propanamide] | 1.85 µM | > 30 µM | > 30 µM |
| CCOc1nn(C)cc1Nc1ncc(F)c(-c2c[nH]c3c(NC(=O)[C@@H](C)N4CCN(C)C[C@H]4C)cccc23)n1 [Example 12, (2R)-2-[(2R)-2,4-dimethylpiperazin-1-yl]-N-(3-{2-[(3-ethoxy-1-methyl-1H-pyrazol-4-yl)amino]-5-fluoropyrimidin-4-yl}-1H-indol-7-yl)propanamide] | 0.068 µM |  |  |
| CCOc1nn(C)cc1Nc1ncc(F)c(-c2c[nH]c3c(NC(=O)[C@@H](C)N4CCN(C)[C@H](C)C4)cccc23)n1 [Example 13, (2R)-2-[(3R)-3,4-dimethylpiperazin-1-yl]-N-(3-{2-[(3-ethoxy-1-methyl-1H-pyrazol-4-yl)amino]-5-fluoropyrimidin-4-yl}-1H-indol-7-yl)propanamide] | 0.166 µM | > 30 µM | > 30 µM |
| COc1nn(C)cc1Nc1ncc(C)c(-c2c[nH]c3c(NC(=O)[C@@H](C)N4CCN(C)[C@@H](C)C4)cccc23)n1 [Example 14, (2R)-2-[(3S)-3,4-dimethylpiperazin-1-yl]-N-(3-{2-[(3-methoxy-1-methyl-1H-pyrazol-4-yl)amino]-5-methylpyrimidin-4-yl}-1H-indol-7-yl)propanamide] | 0.009 µM | 6.39 µM | > 30 µM |
| COc1nn(C)cc1Nc1ncc(C)c(-c2c[nH]c3c(NC(=O)[C@@H](C)N4CCN(CCO)CC4)cccc23)n1 [Example 15, (2R)-2-[4-(2-hydroxyethyl)piperazin-1-yl]-N-(3-{2-[(3-methoxy-1-methyl-1H-pyrazol-4-yl)amino]-5-methylpyrimidin-4-yl}-1H-indol-7-yl)propanamide] | 0.007 µM | 2.53 µM | > 30 µM |
| CCN1CCN([C@H](C)C(=O)Nc2cccc3c(-c4nc(Nc5cn(C)nc5OC)ncc4C)c[nH]c23)CC1 [Example 16, (2R)-2-(4-ethylpiperazin-1-yl)-N-(3-{2-[(3-methoxy-1-methyl-1H-pyrazol-4-yl)amino]-5-methylpyrimidin-4-yl}-1H-indol-7-yl)propanamide] | 0.019 µM | 6.24 µM | > 30 µM |
| COCCN1CCN([C@H](C)C(=O)Nc2cccc3c(-c4nc(Nc5cn(C)nc5OC)ncc4C)c[nH]c23)CC1 [Example 17, (2R)-2-[4-(2-methoxyethyl)piperazin-1-yl]-N-(3-{2-[(3-methoxy-1-methyl-1H-pyrazol-4-yl)amino]-5-methylpyrimidin-4-yl}-1H-indol-7-yl)propanamide] | 0.107 µM | 18.1 µM | > 30 µM |
| COc1nn(C)cc1Nc1nccc(-c2c[nH]c3c(NC(=O)[C@@H](C)N4CCN(C)C[C@H]4C)cccc23)n1 [Example 29, (2R)-2-[(2R)-2,4-dimethylpiperazin-1-yl]-N-(3-{2-[(3-methoxy-1-methyl-1H-pyrazol-4-yl)amino]pyrimidin-4-yl}-1H-indol-7-yl)propanamide] | 0.097 µM |  |  |
| CC[C@H](C(=O)Nc1cccc2c(-c3nc(Nc4cn(C)nc4OC)ncc3F)c[nH]c12)N1CCN(C)CC1 [Example 51, (2R)-N-(3-{5-fluoro-2-[(3-methoxy-1-methyl-1H-pyrazol-4-yl)amino]pyrimidin-4-yl}-1H-indol-7-yl)-2-(4-methylpiperazin-1-yl)butanamide] | < 0.003 µM |  |  |
| CC[C@@H](C(=O)Nc1cccc2c(-c3nc(Nc4cn(C)nc4OC)ncc3F)c[nH]c12)N1CCN(C)CC1 [Example 52, (2S)-N-(3-{5-fluoro-2-[(3-methoxy-1-methyl-1H-pyrazol-4-yl)amino]pyrimidin-4-yl}-1H-indol-7-yl)-2-(4-methylpiperazin-1-yl)butanamide] | 0.296 µM |  |  |
